Experimental data taken from paper PMC7559897, “Designed Antimicrobial Peptides Against Trauma-Related Cutaneous Invasive Fungal Wound Infections” (Journal of Fungi, 2020).
Converted amounts (≈) assume the structure as drawn. Bridge positions count the residues as written; N and C are the ends. Square brackets hold non-standard residues; d marks the D form. Ends that are not written are not given here. Peptide text beside a SMILES is read from it. Orn = NCCC[C@H](N)C(=O)O

Key:
[1] = tested on: Absidia corymbifera NRRL 6251; assay type: cell-based; conditions: NRRL 6251, 24 h
Experimental: (§1) Assays were performed by Trideum Biosciences (Frederick, MD, USA). Isolates were thawed from −80 °C storage and sub-cultured on trypticase soy agar plates at 37 °C prior to experimentation. A single colony was aseptically picked from the agar plate and released in 30 mL trypticase soy broth and incubated overnight at 37 °C incubator. Following which the bacterial culture was diluted to approximately 10^6 colony forming units (CFU)/mL using 2X cation adjusted Mueller–Hinton broth and added to the dAMP solutions (0, 2, 4, 8, 16, 32, 64, and 128 μg/mL) which had been formulated in water at 256 μg/mL and then serially diluted in media on 96-well pates. For fungal evaluation, potato dextrose broth and potato dextrose agar plates were used. The treated cultures were then incubated for 24 h at 37 °C and pathogen growth was measured by absorbance at 600 nm. Four replicas were included for each dAMP concentration. Each MIC was assigned to the lowest test agent concentration resulting in at least three out of four wells showing no growth based on an optical density (OD) reading of <0.1.

[2] = tested on: Aspergillus flavus MYA-1004; assay type: cell-based; conditions: 24 h
Experimental: as §1

[3] = tested on: Aspergillus flavus MYA-3651; assay type: cell-based; conditions: 24 h
Experimental: as §1

[4] = tested on: Aspergillus fumigatus 9648; assay type: cell-based; conditions: 9648, 24 h
Experimental: as §1

[5] = tested on: Aspergillus fumigatus 9651; assay type: cell-based; conditions: 9651, 24 h
Experimental: as §1

Candida albicans Y-326 = assay type: cell-based; conditions: Y-326, 24 h
Experimental: as §1

Candida albicans Y-6359 = assay type: cell-based; conditions: Y-6359, 24 h
Experimental: as §1

Candida krusei Y-27803 = assay type: cell-based; conditions: Y-27803, 24 h
Experimental: as §1

Candida krusei Y-27825 = assay type: cell-based; conditions: Y-27825, 24 h
Experimental: as §1

[6] = tested on: Candida parapsilosis Y-1761; assay type: cell-based; conditions: Y-1761, 24 h
Experimental: as §1

[7] = tested on: Candida parapsilosis Y-1763; assay type: cell-based; conditions: Y-1763, 24 h
Experimental: as §1

E. cloacae 6053 = assay type: cell-based; conditions: 6053, 24 h
Experimental: as §1

E. cloacae 6054 = assay type: cell-based; conditions: 6054, 24 h
Experimental: as §1

[8] = tested on: Fusarium solani NRRL 28548; assay type: cell-based; conditions: NRRL 28548, 24 h
Experimental: as §1

[9] = tested on: Mucor circinelloides NRRL 3631; assay type: cell-based; conditions: NRRL 3631, 24 h
Experimental: as §1

S. epidermis ATCC 51625 = assay type: cell-based; conditions: ATCC 51625, 24 h
Experimental: as §1

A. baumannii 6043 = assay type: cell-based, Acinetobacter baumannii; conditions: 6043, 24 h
Experimental: as §1

A. baumannii 6838 = assay type: cell-based, Acinetobacter baumannii; conditions: 6838, 24 h
Experimental: as §1

A. baumannii ATCC 17978 = assay type: cell-based, Acinetobacter baumannii; conditions: ATCC 17978, 24 h
Experimental: as §1

K. pneumonia 6069 = assay type: cell-based, Klebsiella pneumoniae; conditions: 24 h
Experimental: as §1

K. pneumonia ATCC 10031 = assay type: cell-based, Klebsiella pneumoniae; conditions: ATCC 10031, 24 h
Experimental: as §1

P. aeruginosa 6186 = assay type: cell-based, Pseudomonas aeruginosa; conditions: 6186, 24 h
Experimental: as §1

P. aeruginosa ATCC 19660 = assay type: cell-based, Pseudomonas aeruginosa; conditions: ATCC 19660, 24 h
Experimental: as §1

P. aeruginosa ATCC 27853 = assay type: cell-based, Pseudomonas aeruginosa; conditions: ATCC 27853, 24 h
Experimental: as §1

MRSA 6313 = assay type: cell-based, Staphylococcus aureus; conditions: 6313, 24 h
Experimental: as §1

MRSA 6381 = assay type: cell-based, Staphylococcus aureus; conditions: 6381, 24 h
Experimental: as §1

MRSA ATCC 33592 = assay type: cell-based, Staphylococcus aureus; conditions: ATCC 33592, 24 h
Experimental: as §1

S. aureus 6061 = assay type: cell-based, Staphylococcus aureus; conditions: 6061, 24 h
Experimental: as §1

S. aureus B-767 = assay type: cell-based, Staphylococcus aureus; conditions: B-767, 24 h
Experimental: as §1

[10] = tested on: vulvovaginal candidiasis infection; conditions: rats with vulvovaginal candidiasis, oral; cited from earlier work
Excerpt: The dAMPs RP504, RP554 and RP557 were thus tested for their ability to treat a rodent vulvovaginal candidiasis infection. […] A daily dose with a 2% concentration lowered the CFU/sample by more than 4 logs compared to the con ...

FKLRAKIKVRLRAKIKL [D4E1, reference compound]
MIC against Absidia corymbifera NRRL 6251 [1]: 2 µg/mL
MIC against Aspergillus flavus MYA-1004 [2]: 128 µg/mL
MIC against Aspergillus flavus MYA-3651 [3]: 128 µg/mL
MIC against Aspergillus fumigatus 9648 [4]: 128 µg/mL
MIC against Aspergillus fumigatus 9651 [5]: 64 µg/mL
MIC against Candida albicans Y-326 (Candida albicans Y-326): 64 µg/mL
MIC against Candida albicans Y-6359 (Candida albicans Y-6359): 64 µg/mL
MIC against Candida krusei Y-27803 (Candida krusei Y-27803): 64 µg/mL
MIC against Candida krusei Y-27825 (Candida krusei Y-27825): 64 µg/mL
MIC against Candida parapsilosis Y-1761 [6]: 64 µg/mL
MIC against Candida parapsilosis Y-1763 [7]: 64 µg/mL
MIC against E. cloacae 6053 (E. cloacae 6053): 8 µg/mL
MIC against E. cloacae 6054 (E. cloacae 6054): 4 µg/mL
MIC against Fusarium solani NRRL 28548 [8]: 2 µg/mL
MIC against Mucor circinelloides NRRL 3631 [9]: 128 µg/mL
MIC against S. epidermis ATCC 51625 (S. epidermis ATCC 51625): 4 µg/mL
MIC against A. baumannii 6043 (A. baumannii 6043): >128 µg/mL
MIC against A. baumannii 6838 (A. baumannii 6838): 8 µg/mL
MIC against A. baumannii ATCC 17978 (A. baumannii ATCC 17978): 16 µg/mL
MIC against K. pneumonia 6069 (K. pneumonia 6069): 16 µg/mL
MIC against K. pneumonia ATCC 10031 (K. pneumonia ATCC 10031): 32 µg/mL
MIC against P. aeruginosa 6186 (P. aeruginosa 6186): 16 µg/mL
MIC against P. aeruginosa ATCC 19660 (P. aeruginosa ATCC 19660): 32 µg/mL
MIC against P. aeruginosa ATCC 27853 (P. aeruginosa ATCC 27853): 16 µg/mL
MIC against MRSA 6313 (MRSA 6313): 8 µg/mL
MIC against MRSA 6381 (MRSA 6381): 8 µg/mL
MIC against MRSA ATCC 33592 (MRSA ATCC 33592): 8 µg/mL
MIC against S. aureus 6061 (S. aureus 6061): 8 µg/mL
MIC against S. aureus B-767 (S. aureus B-767): 4 µg/mL

CSCC[C@@H]1NC(=O)[C@H](C(C)C)NC(=O)[C@H](C(C)C)NC(=O)[C@H](CC(C)C)NC(=O)[C@H](Cc2c[nH]c3ccccc23)NC(=O)[C@H](C(C)C)NC(=O)[C@@H](NC(=O)[C@H](Cc2c[nH]c3ccccc23)NC(=O)[C@@H](N)CCCNC(=N)N)CSSC[C@@H](C(=O)N[C@@H](CCCCN)C(=O)N[C@@H](CCCCN)C(N)=O)NC1=O [RP513] (H-RWCVWLVVMCKK-NH2; disulfide 3-10)
MIC against Absidia corymbifera NRRL 6251 [1]: 32 µg/mL (≈ 20.7 µM)
MIC against Aspergillus flavus MYA-1004 [2]: >128 µg/mL
MIC against Aspergillus flavus MYA-3651 [3]: 128 µg/mL (≈ 82.7 µM)
MIC against Aspergillus fumigatus 9648 [4]: 128 µg/mL (≈ 82.7 µM)
MIC against Aspergillus fumigatus 9651 [5]: >128 µg/mL
MIC against Candida albicans Y-326 (Candida albicans Y-326): 64 µg/mL (≈ 41.3 µM)
MIC against Candida albicans Y-6359 (Candida albicans Y-6359): 64 µg/mL (≈ 41.3 µM)
MIC against Candida krusei Y-27803 (Candida krusei Y-27803): 64 µg/mL (≈ 41.3 µM)
MIC against Candida krusei Y-27825 (Candida krusei Y-27825): 64 µg/mL (≈ 41.3 µM)
MIC against Candida parapsilosis Y-1761 [6]: >128 µg/mL
MIC against Candida parapsilosis Y-1763 [7]: >128 µg/mL
MIC against E. cloacae 6053 (E. cloacae 6053): >128 µg/mL
MIC against E. cloacae 6054 (E. cloacae 6054): >128 µg/mL
MIC against Fusarium solani NRRL 28548 [8]: 16 µg/mL (≈ 10.3 µM)
MIC against Mucor circinelloides NRRL 3631 [9]: 32 µg/mL (≈ 20.7 µM)
MIC against S. epidermis ATCC 51625 (S. epidermis ATCC 51625): >128 µg/mL
MIC against A. baumannii 6043 (A. baumannii 6043): 64 µg/mL (≈ 41.3 µM)
MIC against A. baumannii 6838 (A. baumannii 6838): 128 µg/mL (≈ 82.7 µM)
MIC against A. baumannii ATCC 17978 (A. baumannii ATCC 17978): >128 µg/mL
MIC against K. pneumonia 6069 (K. pneumonia 6069): 128 µg/mL (≈ 82.7 µM)
MIC against K. pneumonia ATCC 10031 (K. pneumonia ATCC 10031): 128 µg/mL (≈ 82.7 µM)
MIC against P. aeruginosa 6186 (P. aeruginosa 6186): >128 µg/mL
MIC against P. aeruginosa ATCC 19660 (P. aeruginosa ATCC 19660): >128 µg/mL
MIC against P. aeruginosa ATCC 27853 (P. aeruginosa ATCC 27853): >128 µg/mL
MIC against MRSA 6313 (MRSA 6313): >128 µg/mL
MIC against MRSA 6381 (MRSA 6381): >128 µg/mL
MIC against MRSA ATCC 33592 (MRSA ATCC 33592): >128 µg/mL
MIC against S. aureus 6061 (S. aureus 6061): >128 µg/mL
MIC against S. aureus B-767 (S. aureus B-767): >128 µg/mL

OC(Cn1cncn1)(Cn1cncn1)c1ccc(F)cc1F [fluconazole, reference compound]
reduction in tissue candidiasis infection (in words) [10]: non-significant reduction

CC[C@H](C)[C@H](NC(=O)[C@H](CCCN)NC(=O)[C@H](C)NC(=O)[C@H](CCCN)NC(=O)[C@H](CC(C)C)NC(=O)[C@H](CCCCN)NC(=O)[C@@H](NC(=O)[C@H](CCCCN)NC(=O)[C@@H](NC(=O)[C@H](CCCN)NC(=O)[C@H](C)NC(=O)[C@H](CCCN)NC(=O)[C@H](CC(C)C)NC(=O)[C@H](CCCN)NC(=O)[C@@H](N)Cc1ccccc1)[C@@H](C)CC)C(C)C)C(=O)N[C@@H](CCCN)C(=O)N[C@@H](CC(C)C)C(N)=O [RP555] (H-F[Orn]L[Orn]A[Orn]IKVKL[Orn]A[Orn]I[Orn]L-NH2)
MIC against Absidia corymbifera NRRL 6251 [1]: 4 µg/mL (≈ 2.09 µM)
MIC against Aspergillus flavus MYA-1004 [2]: >128 µg/mL
MIC against Aspergillus flavus MYA-3651 [3]: 128 µg/mL (≈ 66.9 µM)
MIC against Aspergillus fumigatus 9648 [4]: 64 µg/mL (≈ 33.5 µM)
MIC against Aspergillus fumigatus 9651 [5]: 64 µg/mL (≈ 33.5 µM)
MIC against Candida albicans Y-326 (Candida albicans Y-326): 32 µg/mL (≈ 16.7 µM)
MIC against Candida albicans Y-6359 (Candida albicans Y-6359): 32 µg/mL (≈ 16.7 µM)
MIC against Candida krusei Y-27803 (Candida krusei Y-27803): 32 µg/mL (≈ 16.7 µM)
MIC against Candida krusei Y-27825 (Candida krusei Y-27825): 32 µg/mL (≈ 16.7 µM)
MIC against Candida parapsilosis Y-1761 [6]: 32 µg/mL (≈ 16.7 µM)
MIC against Candida parapsilosis Y-1763 [7]: 16 µg/mL (≈ 8.37 µM)
MIC against E. cloacae 6053 (E. cloacae 6053): 2 µg/mL (≈ 1.05 µM)
MIC against E. cloacae 6054 (E. cloacae 6054): 4 µg/mL (≈ 2.09 µM)
MIC against Fusarium solani NRRL 28548 [8]: 2 µg/mL (≈ 1.05 µM)
MIC against Mucor circinelloides NRRL 3631 [9]: 64 µg/mL (≈ 33.5 µM)
MIC against S. epidermis ATCC 51625 (S. epidermis ATCC 51625): 2 µg/mL (≈ 1.05 µM)
MIC against A. baumannii 6043 (A. baumannii 6043): 16 µg/mL (≈ 8.37 µM)
MIC against A. baumannii 6838 (A. baumannii 6838): 4 µg/mL (≈ 2.09 µM)
MIC against A. baumannii ATCC 17978 (A. baumannii ATCC 17978): 4 µg/mL (≈ 2.09 µM)
MIC against K. pneumonia 6069 (K. pneumonia 6069): 16 µg/mL (≈ 8.37 µM)
MIC against K. pneumonia ATCC 10031 (K. pneumonia ATCC 10031): 4 µg/mL (≈ 2.09 µM)
MIC against P. aeruginosa 6186 (P. aeruginosa 6186): 4 µg/mL (≈ 2.09 µM)
MIC against P. aeruginosa ATCC 19660 (P. aeruginosa ATCC 19660): 8 µg/mL (≈ 4.18 µM)
MIC against P. aeruginosa ATCC 27853 (P. aeruginosa ATCC 27853): 4 µg/mL (≈ 2.09 µM)
MIC against MRSA 6313 (MRSA 6313): 16 µg/mL (≈ 8.37 µM)
MIC against MRSA 6381 (MRSA 6381): 16 µg/mL (≈ 8.37 µM)
MIC against MRSA ATCC 33592 (MRSA ATCC 33592): 8 µg/mL (≈ 4.18 µM)
MIC against S. aureus 6061 (S. aureus 6061): 16 µg/mL (≈ 8.37 µM)
MIC against S. aureus B-767 (S. aureus B-767): 8 µg/mL (≈ 4.18 µM)
